Measurements from patent publication US11351173B2, “Substituted pyrrolo[1,2-a]pyrimidines and their use in the treatment of medical disorders” (Bial—R&D Investments, S.A., priority 2014, dated 2022).
In brackets after ≈: the same amount, converted by molar mass.

What was measured:
[1] = target: T1, glucocerebrosidase (Gcase) (Homo sapiens, UniProt P04062); test: Glucocerebrosidase (Gcase) activation assay, 4-methylumbelliferyl-beta-D-glucopyranoside substrate, fluorescence readout; format: biochemical; settings: for Percent Gcase Activation, 0.1 μM Test Compound / activation at 0.1 µM: test compound at 0.1 μM; for Percent Gcase Activation, 1 μM Test Compound / activation at 1 µM: test compound at 1.0 μM; for activation at 0.1 µM: read-out: Percent Gcase Activation, 0.1 μM Test Compound; for activation at 1 µM: read-out: Percent Gcase Activation, 1 μM Test Compound
T1 construct: micellar solution containing 10 nM GCase and 100 nM saposin C
T1 sequence (P04062 40-536): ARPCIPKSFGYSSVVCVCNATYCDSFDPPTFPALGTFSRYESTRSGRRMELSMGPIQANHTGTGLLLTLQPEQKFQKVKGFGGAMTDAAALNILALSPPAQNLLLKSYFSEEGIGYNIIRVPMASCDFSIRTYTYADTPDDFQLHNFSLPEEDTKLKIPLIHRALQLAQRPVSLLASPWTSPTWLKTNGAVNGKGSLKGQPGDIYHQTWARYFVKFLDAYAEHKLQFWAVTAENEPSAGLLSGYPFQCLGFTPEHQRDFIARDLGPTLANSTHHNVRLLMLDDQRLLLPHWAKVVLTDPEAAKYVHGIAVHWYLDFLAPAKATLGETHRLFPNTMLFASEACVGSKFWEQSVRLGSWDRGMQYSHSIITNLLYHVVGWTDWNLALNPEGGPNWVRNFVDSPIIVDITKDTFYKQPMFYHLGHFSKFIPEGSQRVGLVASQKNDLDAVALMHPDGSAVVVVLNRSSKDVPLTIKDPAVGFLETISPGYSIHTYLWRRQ
In short: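 Test compounds are first screened at 1.0 and 0.1 μM final, then titrated in 8 points (3-fold from 5 μM) against human GCase with saposin C in phosphatidylserine/triton X-100 micelles at pH 4.7. Reactions run 15 min at room temperature, with fluorescence read at 365/440 nm.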

[2] = Compound solubility in water; settings: water; for solubility: Compound Solubility in Water

Percent Gcase Activation, 0.1 μM Test Compound [1]	Percent Gcase Activation, 1 μM Test Compound [1]	solubility ([2]; in water)	Compound Solubility in Water [2]	activation at 0.1 µM [1]	activation at 1 µM [1]	solubility [2]	SMILES
*** (greater than 20% Gcase activation)	+++ (Gcase activation greater than 60%)	0.06 µg/mL (≈ 0.181 µM)	–	–	–	–	Cc1cc(C)n2ccc(C(=O)Nc3ccc(-c4ncco4)cc3)c2n1 [III-274]
* (less than 10% Gcase activation)	+ (less than 30% Gcase activation)	–	17.4 µg/mL	–	–	–	Cc1cc(C)n2ccc(C(=O)NC3CCC4(CCCO4)CC3)c2n1 (centres unmarked) [III-142]
–	–	–	–	> 20%	> 60%	2.6 µg/mL (≈ 7.75 µM)	COC1CCc2ccc(NC(=O)c3ccn4c(C)cc(C)nc34)cc21 (centres unmarked) [III-119]
–	–	–	–	< 10%	< 30%	17 µg/mL (≈ 51.9 µM)	Cc1cc(C)n2ccc(C(=O)NC3CCC4(CCCO4)CC3)c2n1 (centres unmarked) [III-141]
–	–	8.8 µg/mL (≈ 26.9 µM)	–	10 to 20%	> 60%	–	Cc1cc(C)n2ccc(C(=O)N[C@H]3CC[C@H](OC4CC4)CC3)c2n1 [III-286]
* (less than 10% Gcase activation)	–	–	12.4 µg/mL	–	–	–	Cc1cc(C)n2ccc(C(=O)NC3CCC(C4CCCO4)CC3)c2n1 (centres unmarked) [III-200]
–	–	–	–	> 20%	> 60%	5.8 µg/mL (≈ 16.3 µM)	Cc1cc(C)n2ccc(C(=O)N[C@H]3CC[C@H](OC4CCCC4)CC3)c2n1 [III-132]
–	–	–	–	> 20%	> 60%	3.5 µg/mL (≈ 8.72 µM)	CCCCO[C@H]1CC[C@H](NC(=O)c2ccn3c(COC)cc(C(C)C)nc23)CC1 [III-36]
–	–	–	–	10 to 20%	> 60%	4.5 µg/mL (≈ 12.7 µM)	C#CCCCO[C@H]1CC[C@H](NC(=O)c2ccn3c(C)cc(C)nc23)CC1 [III-194]
–	–	–	–	> 20%	> 60%	1.8 µg/mL (≈ 5.03 µM)	Cc1cc(C)n2ccc(C(=O)N[C@H]3CC[C@@H](OCC(C)(C)C)CC3)c2n1 [III-94]
–	–	0.2 µg/mL (≈ 0.536 µM)	–	> 20%	> 60%	–	Cc1cc(C(F)(F)F)nc2c(C(=O)NC3CCCc4ccccc43)ccn12 (centres unmarked) [III-251]
–	–	12.7 µg/mL (≈ 42.7 µM)	–	10 to 20%	30 to 60%	–	Cc1ccnc2c(C(=O)N[C@H](C)c3ccc(F)cc3)ccn12 [III-261]
–	–	–	–	> 20%	> 60%	1 µg/mL (≈ 2.79 µM)	CNc1cc(C)n2ccc(C(=O)N[C@H]3CC[C@H](OCC(C)C)CC3)c2n1 [III-71]
–	–	–	–	> 20%	30 to 60%	0.3 µg/mL (≈ 0.814 µM)	Cc1cc(C(F)F)n2ccc(C(=O)Nc3ccc(-c4cocn4)cc3)c2n1 [III-27]
–	–	–	–	> 20%	> 60%	3 µg/mL (≈ 9.76 µM)	Cc1cc(C)n2ccc(C(=O)NC(C)(C)c3ccccc3)c2n1 [III-91]
–	–	–	–	> 20%	> 60%	1.6 µg/mL (≈ 4.8 µM)	[2H]c1c(C([2H])([2H])[2H])nc2c(C(=O)NC(C)(C)c3ccc(F)cc3)cc([2H])n2c1C([2H])([2H])[2H] [III-160]
–	–	–	–	< 10%	< 30%	20.8 µg/mL (≈ 56.8 µM)	CNCCCCOc1ccc(NC(=O)c2ccn3c(C)cc(C)nc23)cc1 [III-20]
–	–	–	–	> 20%	> 60%	0.07 µg/mL (≈ 0.206 µM)	[2H]c1c(C([2H])([2H])[2H])nc2c(C(=O)Nc3ccc(-c4cocn4)cc3)cc([2H])n2c1C([2H])([2H])[2H] [III-158]
–	–	1.6 µg/mL (≈ 4.8 µM)	–	> 20%	> 60%	–	Cc1cc(C)n2ccc(C(=O)NC3CCCCc4ccccc43)c2n1 (centres unmarked) [III-226]
–	–	–	–	< 10%	30 to 60%	9.2 µg/mL (≈ 23.3 µM)	COCCOc1ccc2c(c1)C(NC(=O)c1ccn3c(C)cc(C)nc13)CCO2 (centres unmarked) [III-170]
–	–	–	–	> 20%	> 60%	8.2 µg/mL (≈ 22.5 µM)	CCCCO[C@H]1CC[C@H](NC(=O)c2ccn3c(C)cc(Cl)nc23)CC1 [III-65]
–	–	–	–	> 20%	> 60%	1 µg/mL (≈ 2.64 µM)	CCCCO[C@H]1CC[C@H](NC(=O)c2ccn3c(C(F)F)cc(C)nc23)CC1 [III-68]
–	–	–	–	> 20%	> 60%	11.7 µg/mL (≈ 28.6 µM)	CCCCO[C@H]1CC[C@H](NC(=O)c2ccn3c(C(F)F)cc(COC)nc23)CC1 [III-35]
–	–	–	–	< 10%	< 30%	47.3 µg/mL (≈ 121 µM)	COCCOCCO[C@H]1CC[C@H](NC(=O)c2ccn3c(C)cc(C)nc23)CC1 [III-105]
–	–	–	–	> 20%	> 60%	< 1.5 µg/mL	Cc1cc(C)n2ccc(C(=O)Nc3ccc(-c4cocn4)cc3)c2n1 [III-1]

Percent Gcase Activation, 0.1 μM Test Compound [1]	Percent Gcase Activation, 1 μM Test Compound [1]	solubility ([2]; in water)	Compound Solubility in Water [2]	activation at 0.1 µM [1]	activation at 1 µM [1]	solubility [2]	SMILES
–	–	–	–	> 20%	> 60%	0.2 µg/mL (≈ 0.647 µM)	Cc1cc(C)n2ccc(C(=O)Nc3ccc4c(c3)OCO4)c2n1 [III-16]
–	–	–	–	> 20%	> 60%	1.5 µg/mL (≈ 4.2 µM)	Cc1cc(C)n2ccc(C(=O)NC3CCOc4ccc(F)c(F)c43)c2n1 (centres unmarked) [III-172]
–	–	–	–	< 10%	< 30%	38.5 µg/mL (≈ 104 µM)	Cc1cc(C)n2ccc(C(=O)NC3CCC(C(=O)N(C)C4CC4)CC3)c2n1 (centres unmarked) [III-134]
–	–	2.1 µg/mL (≈ 6.22 µM)	–	> 20%	> 60%	–	COc1ccccc1C(C)(C)NC(=O)c1ccn2c(C)cc(C)nc12 [III-233]
–	–	21.1 µg/mL (≈ 57.9 µM)	–	< 10%	< 30%	–	CCC(F)(F)CN1CCC(NC(=O)c2ccn3c(C)cc(C)nc23)CC1 [III-204]
–	–	–	–	10 to 20%	> 60%	13.6 µg/mL (≈ 36.4 µM)	CCCCO[C@H]1CC[C@H](NC(=O)c2ccn3c(C)cc(COC)nc23)CC1 [III-45]
–	–	–	–	> 20%	> 60%	2.5 µg/mL (≈ 6.92 µM)	C#Cc1ccc(C(C)(C)NC(=O)c2ccn3c(C)cc(COC)nc23)cc1 [III-61]
–	–	–	–	< 10%	< 30%	38.3 µg/mL (≈ 107 µM)	CCOCCO[C@H]1CC[C@H](NC(=O)c2ccn3c(C)cc(C)nc23)CC1 [III-102]
–	–	–	–	> 20%	> 60%	4.7 µg/mL (≈ 12.4 µM)	CCCCO[C@H]1CC[C@H](NC(=O)c2ccn3c(C)cc(C(F)F)nc23)CC1 [III-67]
–	–	–	–	> 20%	> 60%	0.01 µg/mL (≈ 0.0287 µM)	Cc1cc(C)n2ccc(C(=O)Nc3ccc(-c4cccs4)nc3)c2n1 [III-8]
–	–	–	–	> 20%	> 60%	9.2 µg/mL (≈ 26.8 µM)	CCCCCO[C@H]1CC[C@H](NC(=O)c2ccn3c(C)cc(C)nc23)C1 [III-178]
–	–	1.6 µg/mL (≈ 4.66 µM)	–	10 to 20%	> 60%	–	CO[C@H]1CC[C@@H](C(C)(C)NC(=O)c2ccn3c(C)cc(C)nc23)CC1 [III-238]
–	–	21.4 µg/mL (≈ 62.3 µM)	–	10 to 20%	> 60%	–	CCCO[C@H]1CC[C@H](CNC(=O)c2ccn3c(C)cc(C)nc23)CC1 [III-240]
–	–	1.6 µg/mL (≈ 4.98 µM)	–	> 20%	> 60%	–	CCC(C)(NC(=O)c1ccn2c(C)cc(C)nc12)c1ccccc1 (centres unmarked) [III-287]
–	–	25.1 µg/mL (≈ 73.7 µM)	–	< 10%	< 30%	–	Cc1cc(C)n2ccc(C(=O)NC3CCN(CC(F)(F)F)C3)c2n1 (centres unmarked) [III-235]
–	–	–	–	> 20%	> 60%	0.5 µg/mL (≈ 1.4 µM)	CCCCCO[C@H]1CC[C@H](NC(=O)c2ccn3c(C)cc(C)nc23)CC1 [III-201]
–	–	–	–	10 to 20%	> 60%	19.5 µg/mL (≈ 57.1 µM)	Cc1cc(C)n2ccc(C(=O)NC3CCCCC34CCOCC4)c2n1 (centres unmarked) [III-184]
–	–	–	–	< 10%	< 30%	13.2 µg/mL (≈ 36.7 µM)	COCCCO[C@H]1CC[C@H](NC(=O)c2ccn3c(C)cc(C)nc23)CC1 [III-107]
–	–	–	33.7 µg/mL	10 to 20%	> 60%	–	Cc1cc(C)n2ccc(C(=O)NC3CCCC34CCCCO4)c2n1 (centres unmarked) [III-138]
–	–	–	–	> 20%	> 60%	1 µg/mL (≈ 2.71 µM)	Cc1cc(C)n2ccc(C(=O)N[C@H]3CC[C@@H](Oc4cccs4)CC3)c2n1 [III-189]
–	–	7.6 µg/mL (≈ 22.4 µM)	–	< 10%	> 60%	–	Cc1ccnc2c(C(=O)NC3(C)CCOc4c(F)cccc43)ccn12 (centres unmarked) [III-258]
–	–	–	–	> 20%	30 to 60%	0.1 µg/mL (≈ 0.276 µM)	COc1cc(NC(=O)c2ccn3c(C)cc(C)nc23)ccc1-c1cnco1 [III-87]
–	–	–	4.6 µg/mL	10 to 20%	> 60%	–	CCCCCOC1CCC(NC(=O)c2ccn3c(C)cc(C)nc23)C1 (centres unmarked) [III-176]
–	–	4 µg/mL (≈ 12.6 µM)	–	< 10%	> 60%	–	Cc1ccnc2c(C(=O)Nc3ccc(-c4ncco4)cc3)ccn12 [III-256]
–	–	20.1 µg/mL (≈ 49.3 µM)	–	10 to 20%	> 60%	–	CCOCCOC1CCC(NC(=O)c2ccn3c(C)cc(C)nc23)c2ccccc21 (centres unmarked) [III-231]
